How the values were obtained:
[1] = test system: Total count Aerobic bacteria; assay: Total aerobic count on seeds, grains and spices sprayed with sanitizing solutions (Example 1); type: cell-based; settings: for bactericidal effect, conclusion in words: 40 L per 1 tonne
Protocol: (§1) Seeds were mechanically cleaned and spread in stainless steel containers. Each 100 grams seeds were sprayed with 4 ml total solutions descried above via conventional trigger vaporizer. This solution is equivalent to 40 L disinfecting solution total sprayed on 1-tonne seeds. Seeds, grains and spices were selected to represent all families and types of seeds, grains and spices. Another criterium was to select seeds and grains contaminated with a high count of total aerobic bacteria, yeast, mold, E. coli, Salmonella sp. and other pathogenic microorganisms.
(§2) Seeds, grains and spices treated were: • Whole dried pea, • Split pea dried, • Pea fiber, • Vanilla, • Chia, • Sprouted flax and chia, • Flax, • Hemp, and • Black pepper seeds

Y&M (yeast and mold) = assay: Yeast and mold (Y&M) count on sprayed seeds, grains and spices (Example 1); type: cell-based; settings: 40 L/tonne; for Y&M, Av: average; for Y&M, n1: replicate n1; for Y&M, n2: replicate n2
Protocol: as §1, §2

## CCO [2- Alcohol - ethanol, ethanol]
[1]; black pepper
  effect when combined with peracetic acid formulations (synergy), in words: synergistic with peracetic acid
  bactericidal effect, conclusion in words: not a strong bactericidal agent
[1]; hemp
  effect when combined with peracetic acid formulations (synergy), in words: synergistic with peracetic acid
  bactericidal effect, conclusion in words: not a strong bactericidal agent
[1]; pea fiber
  effect when combined with peracetic acid formulations (synergy), in words: synergistic with peracetic acid
  bactericidal effect, conclusion in words: not a strong bactericidal agent
[1]; split pea
  effect when combined with peracetic acid formulations (synergy), in words: synergistic with peracetic acid
  bactericidal effect, conclusion in words: not a strong bactericidal agent
[1]; sprouted flax and chia
  bactericidal effect, conclusion in words: bactericidal agent but not very strong
[1]; vanilla
  effect when combined with peracetic acid formulations (synergy), in words: synergistic with peracetic acid
  bactericidal effect, conclusion in words: not a strong bactericidal agent
[1]; whole dried pea
  effect when combined with peracetic acid formulations (synergy), in words: synergistic with peracetic acid
  bactericidal effect, conclusion in words: not a strong bactericidal agent
Y&M (yeast and mold); pea fiber
  Y&M, Av: Y&M not detected
  Y&M, n1: n1, n2 not detected
  Y&M, n2: n1, n2 not detected
Y&M (yeast and mold); whole dried pea
  Y&M, Av: Y&M not detected
  Y&M, n1: n1, n2 not detected
  Y&M, n2: n1, n2 not detected
Y&M (yeast and mold); whole split pea
  Y&M, Av: Y&M not detected
  Y&M, n1: n1, n2 not detected
  Y&M, n2: n1, n2 not detected

## CC(=O)OO [Peracetic acid]
[1]; black pepper
  bactericidal effect, conclusion in words: strong bactericidal agent
[1]; hemp
  bactericidal effect, conclusion in words: strong bactericidal agent
[1]; pea fiber
  bactericidal effect, conclusion in words: strong bactericidal agent
[1]; split pea
  bactericidal effect, conclusion in words: strong bactericidal agent
[1]; vanilla
  bactericidal effect, conclusion in words: strong bactericidal agent
[1]; whole dried pea
  bactericidal effect, conclusion in words: strong bactericidal agent
